Here are results for three compounds from publication PMC6353796, “Thermostable Branched-Chain Amino Acid Transaminases From the Archaea Geoglobus acetivorans and Archaeoglobus fulgidus: Biochemical and Structural Characterization” (Frontiers in Bioengineering and Biotechnology, 2019).

Holding throughout (format): binding
In assay [1] the target is T1, AF0933 (Archaeoglobus fulgidus, UniProt O29329).
T1 construct: gene ilvE; His-tagged (pLATE51, E. coli Rosetta (DE3)-pLysS); homohexamer in solution; catalytic Lys150
T1 sequence (O29329 1-290): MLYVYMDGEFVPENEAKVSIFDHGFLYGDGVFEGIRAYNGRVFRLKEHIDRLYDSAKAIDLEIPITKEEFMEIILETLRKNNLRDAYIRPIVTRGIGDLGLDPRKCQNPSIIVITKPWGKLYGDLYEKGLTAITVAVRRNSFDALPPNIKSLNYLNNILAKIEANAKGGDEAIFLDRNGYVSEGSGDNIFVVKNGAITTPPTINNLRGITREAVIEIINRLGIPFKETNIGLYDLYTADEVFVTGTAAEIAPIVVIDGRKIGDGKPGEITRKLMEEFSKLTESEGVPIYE
Description: X-ray crystal structure, […] Å, co-crystallization. The note with it: 5 mM gabaculine; covalent adduct with PLP, irreversible; partial occupancy, absent in subunit F.

Assay [2] concerns the target T2, GEO1900 (Geoglobus acetivorans, UniProt A0A0A7GJ30).
T2 construct: gene ilvE; mainly homodimer in solution, hexamer in crystal; catalytic Lys152
Description: X-ray crystal structure, […] Å. The note with it: covalent internal aldimine with Lys152.

The target in assay [3] is T1, AF0933. Description: X-ray crystal structure, […] Å. The note with it: covalent internal aldimine with Lys150.
For assay [4], the target named is T2, GEO1900. Description: X-ray crystal structure, […] Å, soak. The note with it: 50 mM AKG soak; unproductive complex with holoenzyme; active site of subunit A only.

T2 sequence (A0A0A7GJ30 entry or part of it): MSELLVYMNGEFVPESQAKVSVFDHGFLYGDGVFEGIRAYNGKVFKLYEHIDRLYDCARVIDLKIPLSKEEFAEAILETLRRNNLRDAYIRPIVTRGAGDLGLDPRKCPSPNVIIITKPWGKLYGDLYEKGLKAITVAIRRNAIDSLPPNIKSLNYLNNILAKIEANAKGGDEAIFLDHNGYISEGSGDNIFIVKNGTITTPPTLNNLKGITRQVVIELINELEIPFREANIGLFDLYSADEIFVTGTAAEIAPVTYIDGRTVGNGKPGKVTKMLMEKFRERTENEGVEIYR

Take `N[C@@H]1C=CC=C(C(=O)O)C1` [gabaculine]: the “X-ray crystal structure, 2.0 Å, co-crystallization” value on AF0933 [1] is listed as “AF0933 complexed with gabaculine 5MR0”.

On to `Cc1ncc(COP(=O)(O)O)c(C=O)c1O` [pyridoxal 5′-phosphate], for which the “X-ray crystal structure, 1.9 Å” value at GEO1900 [2] is on record as “A PLP molecule is covalently bound to the catalytic Lys152 in the GEO1900 active site”. Moreover, the “X-ray crystal structure, 2.1 Å” value at AF0933 [3] is “A PLP molecule is covalently bound to the catalytic Lys152 in the GEO1900 active site (Lys150”.

`O=C(O)CCC(=O)C(=O)O` [α-ketoglutarate]: the “X-ray crystal structure, 2.2 Å, soak” value on GEO1900 [4] was “GEO1900 complexed with AKG 5E25”.
